Test results reported in article PMC11928584, “H105A peptide eye drops promote photoreceptor survival in murine and human models of retinal degeneration” (Communications Medicine, 2025).
Where a SMILES comes first, the peptide text is derived from it.

Tests used:
[1] = tested on: human iPSC-derived retinal organoids exposed to CSE; assay: Ethidium homodimer staining of live retinal organoids (3D-ARQ); assay type: cell-based; conditions: D180 ROs, 24 h, mean ± SD, n=14
Description: Human iPSCs were differentiated into retinal organoids (ROs) following the protocol by Zhong et al.[41]. Briefly, on Day 0, hiPSC colonies were dissociated with dispase and grown in a suspension to form embryoid bodies, and slowly transitioned to neural induction media (DMEM/F12 (1:1), 1% N2 supplement (Invitrogen), 1 x minimum essential media-nonessential amino acids (NEAAs), 2 µg/ml heparin (Sigma)). On Day 7, EBs were seeded on Matrigel coated plates and maintained in neural induction media. On Day 16, the media was switched to the retinal differentiation medium (DMEM/F12 (3:1), 2% B27 (without vitamin A, Invitrogen), 1x NEAA and 1% antibiotic–antimycotic (Gibco)). Retinal domains were identified and lifted manually with tungsten needles between Day 21 and Day 26 under a phase contrast microscope. On day 30, the culture medium was transitioned to DMEM/F12 (3:1) with 2% B27, 1x NEAA, 1% antibiotic–antimycotic, 10% fetal bovine serum (FBS; Gibco), […] Taurine (Sigma), and 2 mM GlutaMAX (Invitrogen). Additionally, 1 µM retinoic acid supplement was introduced daily starting from day 63. […]
After treatment, ROs were washed in PBS (Gibco, 14190-144) and the auto-fluorescent background was measured by 3D-automated reporter quantification (3D-ARQ)[42], using a Tecan Spark Plate reader (SparkControl v2.3). The Z-position was determined manually by selecting the individual well and fluorescent intensity was measured using the optimized parameters below. […] After incubation, ROs were washed three times with PBS, and fluorescence intensity was measured by 3D-ARQ using the following parameters: Mode: Fluorescent top reading; Wavelength for PSVue-794: Excitation: Emission 730:820 nm, Excitation bandwidth: 10 nm, Emission bandwidth: 15 nm; Wavelength for Ethidium Homodimer: Excitation: Emission 530:630 nm, Excitation bandwidth: 5 nm, Emission bandwidth: 5 nm; Gain: 160, Manual; Number of flashes: 20; integration time: 40 µs; lag time 0 µs. […] Results were analysed after background subtraction; n = 19-24 ROs per condition. […]

[2] = tested on: photoreceptors of rd10/Serpinf1-/- mice; assay: ONL thickness (histology, spider plot), rd10/Serpinf1-/- mice; assay type: in vivo, mouse; conditions: daily eye drops, P21
Description: Both eyes were oriented before enucleation to allow sectioning along the dorsal/ventral axis. Enucleated eyes from rd10 and rd10/Serpinf1^-/- mice were incised in the cornea and fixed in 2.5% glutaraldehyde for 20 min and then in 10% neutral buffered formalin at 4 °C for at least 48 h, followed by paraffin embedding, sectioning, and staining with either H&E or immunofluorescence procedures. […] For fluorescence microscopy, antibodies, and 0.1 µg/ml DAPI were used to immunostain and counterstain the nuclei, respectively. […] Fluorescence intensity was quantified using ImageJ, and a rectangle was selected around regions of interest (ROIs), channels were split for multiple antibodies, threshold was adjusted, noise was de-speckled, and fluorescence intensity was measured.
To generate spider plots, the ONL thickness was measured from images passing through the optic nerve (ON) acquired with light microscopy of the retina sections stained with H&E or images of retina sections stained with DAPI with a dorsal-ventral orientation. The ONL thickness in the entire retina sections was measured at 5 different positions from both sides of the ON using ImageJ[28]. […]

SMILES | Fluorescence intensity of Ethidium homodimer ([1]; CSE 500 µg/ml + peptide 1 nM) [RFU] | Fluorescence intensity of Ethidium homodimer ([1]; CSE 500 µg/ml + peptide 20 nM) [RFU] | OS length and ONL thickness vs vehicle-treated or untreated eyes [2]
CC[C@H](C)[C@H](NC(=O)[C@H](CC(C)C)NC(=O)[C@H](CC(=O)O)NC(=O)[C@H](Cc1ccc(O)cc1)NC(=O)[C@H](Cc1ccc(O)cc1)NC(=O)[C@H](CC(C)C)NC(=O)[C@H](C)NC(=O)[C@H](CCCNC(=N)N)NC(=O)[C@H](C)NC(=O)[C@@H](NC(=O)[C@@H](NC(=O)[C@H](CO)NC(=O)[C@H](CCC(=O)O)NC(=O)[C@@H](NC(=O)[C@H](CCCNC(=N)N)NC(=O)[C@@H](N)CCC(N)=O)[C@@H](C)O)[C@@H](C)CC)[C@@H](C)CC)C(=O)N[C@@H](CO)C(=O)O [H105A] (H-QRTESIIARALYYDLIS-OH) | 848.9 ± 51.0 | 919.2 ± 46.0 | longer OS and thicker outer nuclear layer
CC[C@H](C)[C@H](NC(=O)[C@H](CC(C)C)NC(=O)[C@H](CC(=O)O)NC(=O)[C@H](Cc1ccc(O)cc1)NC(=O)[C@H](Cc1ccc(O)cc1)NC(=O)[C@H](CC(C)C)NC(=O)[C@H](C)NC(=O)[C@H](CCCNC(=N)N)NC(=O)[C@H](Cc1c[nH]cn1)NC(=O)[C@@H](NC(=O)[C@@H](NC(=O)[C@H](CO)NC(=O)[C@H](CCC(=O)O)NC(=O)[C@@H](NC(=O)[C@H](C)NC(=O)[C@@H](N)CCC(N)=O)[C@@H](C)O)[C@@H](C)CC)[C@@H](C)CC)C(=O)N[C@@H](CO)C(=O)O [R99A] (H-QATESIIHRALYYDLIS-OH) |  | 1283.2 ± 67.6 | no effect
